Measured values from US8173682B2, “Substituted pyridones as inhibitors of poly(ADP-ribose) polymerase (PARP)” (Aventis Pharmaceuticals Inc., priority 2004, dated 2012).
Structures can show the parent of a compound that is named as a salt.

The compounds below were run against T1, recombinant human PARP (PARP1) (Homo sapiens, UniProt P09874) (assay: PARP enzyme assay, Method A (radioactivity or 'ELISA' enzyme assay with partially purified enzyme)). Settings: recombinant human PARP preparation, radioactive or ELISA enzyme assay.
T1 construct: Full length human PARP (PARP1) is assembled from PCR fragments; His6 tag with TEV site, from the pFastBac-HTb vector (own knowledge of the vector); made in house; host or cells: insect cells, baculovirus (Bac-to-Bac, Gibco-BRL)
T1 sequence (P09874 whole entry, the tested form may be a part): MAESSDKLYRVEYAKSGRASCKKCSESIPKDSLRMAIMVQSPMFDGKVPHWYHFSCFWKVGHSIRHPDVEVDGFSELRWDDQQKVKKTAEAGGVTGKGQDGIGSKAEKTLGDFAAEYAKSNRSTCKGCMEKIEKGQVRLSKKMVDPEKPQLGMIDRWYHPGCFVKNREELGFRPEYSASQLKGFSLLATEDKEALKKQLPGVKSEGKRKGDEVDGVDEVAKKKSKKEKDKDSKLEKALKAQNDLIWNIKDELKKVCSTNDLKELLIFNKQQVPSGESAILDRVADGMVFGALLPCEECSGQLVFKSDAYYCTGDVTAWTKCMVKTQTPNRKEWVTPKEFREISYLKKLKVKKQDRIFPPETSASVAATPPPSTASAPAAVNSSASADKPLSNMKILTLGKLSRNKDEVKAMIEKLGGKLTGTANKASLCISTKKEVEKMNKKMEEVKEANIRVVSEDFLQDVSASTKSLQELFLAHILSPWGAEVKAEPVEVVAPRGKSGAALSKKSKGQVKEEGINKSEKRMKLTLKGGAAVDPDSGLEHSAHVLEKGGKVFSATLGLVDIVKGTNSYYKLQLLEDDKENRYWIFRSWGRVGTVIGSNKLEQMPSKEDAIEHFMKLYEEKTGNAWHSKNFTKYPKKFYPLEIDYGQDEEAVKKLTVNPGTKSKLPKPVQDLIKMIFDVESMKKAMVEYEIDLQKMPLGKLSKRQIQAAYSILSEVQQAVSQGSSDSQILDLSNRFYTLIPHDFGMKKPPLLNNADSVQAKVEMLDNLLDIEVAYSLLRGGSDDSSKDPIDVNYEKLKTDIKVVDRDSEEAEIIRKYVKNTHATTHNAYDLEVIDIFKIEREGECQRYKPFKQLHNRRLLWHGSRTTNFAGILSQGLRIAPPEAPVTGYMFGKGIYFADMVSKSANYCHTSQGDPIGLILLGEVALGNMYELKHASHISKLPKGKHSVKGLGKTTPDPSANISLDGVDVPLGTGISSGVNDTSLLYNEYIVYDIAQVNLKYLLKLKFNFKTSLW
Format: biochemical
Excerpt: Two different methods are employed in determining the activity of the compounds of this invention in inhibiting the activity of PARP enzyme, designated as Method A and Method B respectively as set forth below.
Method A: Cloning and Expression, and Partial Purification of Recombinant Human PARP:
Full length human PARP (PARP1) is assembled from PCR fragments of a clone from a human brain cDNA library and two Incyte clones. The PARP gene (3046 bp) is sub-cloned into pFastBac-HTb vector to give PARP-pFastBac-HTb and the sequence of this clone is verified. PARP-pFastBac-HTb is expressed to obtain protein using the Bac-to-Bac expression protocol from Gibco-BRL. The recombinant virus generated is used to scale up the material for purification.
Cell pellets from cell broth of cells expressing PARP are treated with a cocktail of protease inhibitors and lysed by 4 freeze-thaw cycles. The material is suspended in 10 mM HEPES/0.1M NaCl/pH 7.2, stirred, and then centrifuged. A 40%-70% ammonium sulfate cut of protein pellet is obtained from the supernatant. The pellet is solubilized in 10 mM HEPES/pH 7.2 and centrifuged. The supernatant buffer is exchanged to 10 mM HEPES/pH 7.2/0.1M NaCl/25% glycerol by dialysis or with a desalting column. The enzyme preparation is stored at −20° C. until use.
The compounds of this invention are then tested with this enzyme preparation using either the radioactive enzyme assay or by the “ELISA” enzyme assay as set forth below.
Radioactivity Enzyme Assay:
Incorporation of radioactivity from labeled NAD into acid-precipitated protein is measured. The reaction mixture (volume 100 μL or 50 μL, in a test-tube or 96-well plate) contained 100 μg/mL calf thymus DNA (sonicated), 100 μg/mL histones, 100 mM Tris (pH 8.0), 1.0 mM DTT, 10 mM MgCl2, NAD (200 μM, 0.65 microcurie/mL), and varying amounts of enzyme. The reaction was incubated for 10 min at 37° C. or at room temperature for 60 min. The reaction was stopped and protein precipitated by addition of ice-cold trichloroacetic acid (TCA; 10% or 20% aqueous w/v). After brief storage in ice or at 4° C. for 2 hrs, the reaction mixture is filtered under vacuum through a glass fiber filter (2.5 cm disc, or 96-well filter plate). After washing with TCA and ethanol, the filter is dried and counted for tritium CPM after addition of scintillation fluid.
Incorporation of biotin-NAD into histone coated on plate is measured. A 96-well protein-binding EIA plate is coated with histone and blocked with bovine serum albumin. The reaction mixture (50 μL) contained DNA, buffer, enzyme, (test compound), and 250 μM of NAD and 5 μL of biotin-NAD (Trevigen). After reaction at room temperature the wells are washed and treated with Extravidin (Sigma). After incubation and washing color is developed with the peroxidase substrate TMB (Sigma). The TMB reaction is quenched with 2M sulfuric acid and the absorbance at 450 nm is read.
CCc1cc(-c2ccc(S(=O)(=O)NC3CCN(Cc4ccccc4)CC3)o2)c(C)[nH]c1=O [Example 46, 5-(5-Ethyl-2-methyl-6-oxo-1,6-dihydropyridin-3-yl)furan-2-sulfonic acid (1-benzylpiperidin-4-yl)amide hydrochloride] showed an IC50 of 0.46 µM.
CCc1cc(-c2ccc(S(=O)(=O)NCc3cccnc3)o2)c(C)[nH]c1=O [Example 55, 5-(5-Ethyl-2-methyl-6-oxo-1,6-dihydropyridin-3-yl)furan-2-sulfonic acid (pyridin-3-yl)methylamide hydrochloride] showed an IC50 of 0.22 µM.
In the case of CCc1cc(-c2ccc(S(=O)(=O)N3CCN(CCN4CCCC4)CC3)s2)c(C)[nH]c1=O [Example 61, 3-Ethyl-6-methyl-5-{5-[4-(2-pyrrolidin-1-yl)ethylpiperazine-1-sulfonyl]thiophen-2-yl}-1H-pyridin-2-one dihydrochloride], the IC50 is reported as 0.43 µM.
CCc1cc(-c2ccc(S(=O)(=O)NCC3CCCN3CC)s2)c(C)[nH]c1=O (centres unmarked) [Example 102, 5-(5-Ethyl-2-methyl-6-oxo-1,6-dihydropyridin-3-yl)-thiophene-2-sulfonic acid (1-ethyl-pyrrolidin-2-ylmethyl)amide hydrochloride] gave an IC50 of 0.49 µM.
CCc1cc(-c2nnc(C)o2)c(C)[nH]c1=O [Example 15, 3-Ethyl-6-methyl-5-(5-methyl-1,3,4-oxadiazol-2-yl)-1H-pyridin-2-one] was tested, and the IC50 was 0.72 µM.
Work on CCc1cc(-c2ccc(S(=O)(=O)N3CCN(CCc4ccccn4)CC3)s2)c(C)[nH]c1=O [Example 60, 3-Ethyl-6-methyl-5-{5-[4-(2-pyridin-2-yl)ethylpiperazine-1-sulfonyl]thiophen-2-yl}-1H-pyridin-2-one dihydrochloride] yielded an IC50 of 1.7 µM.
CCc1cc(-c2ccc(CNCc3cc(F)cc(F)c3)s2)c(C)[nH]c1=O [Example 158, 5-[5-(3,5-Difluorobenzylaminomethyl)thiophen-2-yl]-3-ethyl-6-methyl-1H-pyridin-2-one hydrochloride] was tested, and the IC50 was 0.51 µM.
In the case of CCc1cc(-c2ccc(S(=O)(=O)NCc3ccc(C)o3)s2)c(C)[nH]c1=O [Example 35, 5-(5-Ethyl-2-methyl-6-oxo-1,6-dihydropyridin-3-yl)thiophene-2-sulfonic acid (5-methylfuran-2-yl)methylamide], the IC50 is reported as 10.9 µM.
CCc1cc(-c2ccc(S(=O)(=O)NCC3CCNCC3)s2)c(C)[nH]c1=O [Example 41-2, 5-[5-Ethyl-2-methyl-6-oxo-(1,6-dihydropyridin-3-yl)]thiophene-2-sulfonic acid (piperidin-4-yl)methylamide hydrochloride] showed an IC50 of 0.52 µM.
With CCc1cc(-c2ccc(CNCCc3cccnc3)s2)c(C)[nH]c1=O [Example 163, 3-Ethyl-6-methyl-5-{5-{[(pyridin-3-ylethyl)amino]methyl}thiophen-2-yl)-1H-pyridin-2-one dihydrochloride] the IC50 was 1.7 µM.
With CCc1cc(-c2ccc(S(=O)(=O)NCc3cncc(C)n3)s2)c(C)[nH]c1=O [Example 73, 5-[5-Ethyl-2-methyl-6-oxo-1,6-dihydropyridin-3-yl]thiophene-2-sulfonic acid (6-methylpyrazin-2-yl)methylamide hydrochloride] the IC50 was 0.42 µM.
CCc1cc(-c2ccc(S(=O)(=O)NCC(C)O)s2)c(C)[nH]c1=O (centres unmarked) [Example 113, 5-(5-Ethyl-2-methyl-6-oxo-1,6-dihydropyridin-3-yl)thiophene-2-sulfonic acid (2-hydroxypropyl)amide] showed an IC50 of 0.9 µM.
CCc1cc(-c2ccc(S(=O)(=O)NCCCN(CC)CC)s2)c(C)[nH]c1=O [Example 96, 5-(5-Ethyl-2-methyl-6-oxo-1,6-dihydropyridin-3-yl)-thiophene-2-sulfonic acid (3-diethylaminopropyl)amide hydrochloride] gave an IC50 of 0.72 µM.
CCc1cc(-c2ccc(S(=O)(=O)N3CCCN(C)CC3)o2)c(C)[nH]c1=O [Example 52, 3-Ethyl-6-methyl-5-[5-(4-methyl-1,4-diazepane-1-sulfonyl)furan-2-yl]-1H-pyridin-2-one hydrochloride] showed an IC50 of 0.38 µM.
